Results reported in patent US20200181153A1, “IMIDAZOPYRIDAZINONE COMPOUNDS AND USES THEREOF” (Aduro Biotech, Inc., priority 2018, published 2020).

What was measured:
Human cGAS = target: T1, Human cGAS (Homo sapiens, UniProt Q8N884); experiment: cGAS biochemical activity assay (ATP levels by Kinase-Glo Max luminescence); conditions: human cGAS amino acids 155-522, 25 nM, activated by 1 μM double stranded DNA, 37° C. for 1.25 hours
T1 construct: hexahistidine tag (N, cleaved yes); made in house; host or cells: E. coli BL21 DE3 Rosetta 2
T1 sequence (Q8N884 157-522): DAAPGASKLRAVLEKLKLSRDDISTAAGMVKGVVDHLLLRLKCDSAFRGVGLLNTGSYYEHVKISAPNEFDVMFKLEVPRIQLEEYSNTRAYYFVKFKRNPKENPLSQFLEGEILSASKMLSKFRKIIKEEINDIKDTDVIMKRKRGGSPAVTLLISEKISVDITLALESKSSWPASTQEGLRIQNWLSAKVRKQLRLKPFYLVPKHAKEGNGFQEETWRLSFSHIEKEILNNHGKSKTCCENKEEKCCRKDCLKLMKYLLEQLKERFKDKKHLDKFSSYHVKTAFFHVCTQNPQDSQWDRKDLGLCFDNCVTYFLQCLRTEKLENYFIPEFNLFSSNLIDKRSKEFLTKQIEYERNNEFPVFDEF
Description: Human cGAS sequence encoding amino acids 155-522 was cloned into a pET (EMD Millipore) based expression plasmid. The resulting construct contained a tandem N-terminal hexahistidine tag, maltose binding protein fusion followed by a tobacco etch virus protease cleavable linker preceding cGAS amino acids 155-522.
Protein was expressed and purified from E. coli BL21 DE3 Rosetta 2 (EMD Millipore) cells using standard techniques. Cells were grown in 2× yeast extract tryptone medium and expression was initiated via the addition of isopropyl β-D-1-thiogalactopyranoside. Expression proceeded overnight at 18° C. Cells were harvested by centrifugation and subsequently […] via sonication. Insoluble fraction was removed by centrifugation. Maltose binding protein (MBP) fusion proteins were purified on a dextrin sepharose column (GE Healthcare) and the MBP tag was removed using tobacco etch virus protease overnight during dialysis. Protein was further purified on a heparin column (GE Healthcare) and eluted using a NaCl gradient. Column fraction were pooled and further purified on a Superdex 75 gel filtration column (GE Healthcare). Protein was quantified using 280 nm absorbance. Protein was then flash frozen in liquid nitrogen and stored at −80° C., until use.
Potential antagonists were diluted in 100% dimethyl sulfoxide and added to the reaction. Final dimethyl sulfoxide concentration was 5%. The compounds were tested from 250 μM with 5-fold serial dilutions down to 0.000128 μM.
Two complementary DNA oligos (IDT DNA) were annealed by slow cooling from 95° C. The resulting double stranded DNA was used to activate cGAS.
Reactions were performed at 37° C., for 1.25 hours. Reaction buffer: 20 mM Tris HCl pH 9, 100 mM NaCl, 5 mM MgCl2, 0.1 mg/ml bovine gamma globulin, 1 mM adenosine triphosphate, 250 μM guanosine triphosphate, 0.5 mM Tris(2-carboxyethyl)phosphine hydrochloride, 1 μM double stranded DNA and 25 nM purified cGAS protein.
Reactions were stopped and ATP levels in the reaction were measured using a luciferase based assay. Promega Kinase-Glo Max Assay. Luminescence was measured on a plate reader (Molecular Devices). Values were normalized to control wells lacking compound.

cGAS/STING pathway = experiment: THP1 cell-based cGAS/STING pathway activity assay (luciferase reporter linked to IRF-3 activation); conditions: Homo sapiens, THP-1
Excerpt: (§1) A cellular assay can be used to assess the compounds of the invention for their ability to inhibit the cGAS/STING pathway. Cells that express a luciferase-based reporter that is linked to IRF-3 activation are used to determine response as a function of compound concentration. Such an assay is described in Vincent et al., Nature Communications 2017, 8(1):750, doi: 10.1038/s41467-017-00833-9.
as §1, with “10.1038/s41467-017-00833-9. Compounds of the invention were assessed using similar assay methods in a THP1 cell assay to generate IC50 values.” for “10.1038/s41467-017-00833-9.”

With Cc1cc(=O)c2nc(C#N)c(-c3ccccc3)n2[nH]1 [Compound 3, 6-methyl-8-oxo-3-phenyl-5,8-dihydroimidazo[1,2-b]pyridazine-2-carbonitrile] the IC50 (Human cGAS) was less than 1000 nM.

For COc1cccc(-c2c(C)[nH]n3c(-c4ccccc4)c(C#N)nc3c2=O)c1 [Compound 5, 7-(3-methoxyphenyl)-6-methyl-8-oxo-3-phenyl-5,8-dihydroimidazo[1,2-b]pyridazine-2-carbonitrile], the IC50 (cGAS/STING pathway) was less than 10 µM and the IC50 (Human cGAS) was less than 1000 nM.

Cc1[nH]n2c(-c3ccccc3)c(C#N)nc2c(=O)c1-c1cccc(Cl)c1 [Compound 6, 7-(3-chlorophenyl)-6-methyl-8-oxo-3-phenyl-5,8-dihydroimidazo[1,2-b]pyridazine-2-carbonitrile] was tested, and the IC50 (cGAS/STING pathway) was less than 10 µM and the IC50 (Human cGAS) was less than 1000 nM.

With CCc1ccc(-c2c(C)[nH]n3c(-c4ccccc4)c(C#N)nc3c2=O)cc1 [Compound 13, 7-(4-ethylphenyl)-6-methyl-8-oxo-3-phenyl-5,8-dihydroimidazo[1,2-b]pyridazine-2-carbonitrile] the IC50 (cGAS/STING pathway) was less than 10 µM and the IC50 (Human cGAS) was less than 1000 nM.
